Laboratory results published in patent publication US20220009931A1, “NOVEL UREA 6,7-DIHYDRO-4H-PYRAZOLO[1,5-A]PYRAZINES ACTIVE AGAINST THE HEPATITIS B VIRUS (HBV)” (AICURIS GMBH & CO. KG, priority 2018, published 2022).

Tested on: HBV
Conditions: Hepatitis B virus, HePAD38, 144 h, read-out: Cell Activity

Work on O=C(Nc1ccc(F)c(Cl)c1)N1CCn2nc(N[C@H]3C[C@H](O)C3)cc2C1 [Example 36, N-(3-chloro-4-fluorophenyl)-2-{[(1r,3r)-3-hydroxycyclobutyl]amino}-4H,5H,6H,7H-pyrazolo[1,5-a]pyrazine-5-carboxamide] yielded an EC50 of 1 to 10 µM.
